Laboratory results published in patent publication US8349870B2 (priority 2008, dated 2013).
Like-named read-outs stand apart in the source and are kept apart here.

Assays:
Assay type in all cases: in vivo
[1] = tested on: Plasmopara viticola; assay: Test A: grape downy mildew, spray after inoculation, visual disease rating (% disease control); conditions: 100 = 100% disease control, 0 = no control
Text: General protocol for preparing test suspensions for Test A-C: The test compounds were first dissolved in acetone in an amount equal to 3% of the final volume and then suspended at the desired concentration (in ppm) in acetone and purified water (50/50 mix by volume) containing 250 ppm of the surfactant Trem® 014 (polyhydric alcohol esters). The resulting test suspensions were then used in Tests A-C. Spraying a 200 ppm test suspension to the point of run-off on the test plants was equivalent to a rate of 500 g/ha.
Grape seedlings were inoculated with a spore suspension of Plasmopara viticola (the causal agent of grape downy mildew) and incubated in a saturated atmosphere at 20° C. for 24 h. After a short drying period, the test suspension was sprayed to the point of run-off on the grape seedlings, which were then moved to a growth chamber at 20° C. for 5 days, after which time the grape seedling were placed back into a saturated atmosphere at 20° C. for 24 h. Upon removal, visual disease ratings were made.
Results for Tests A-C are given in Table A. In the table, a rating of 100 indicates 100% disease control and a rating of 0 indicates no disease control (relative to the controls). A dash (-) indicates no test results, “*” indicates compound was tested at 40 ppm and “**” indicates compound was tested at 10 ppm.

[2] = tested on: Phytophthora infestans; conditions: tomato late blight, sprayed the day before inoculation
[3] = tested on: Phytophthora infestans; conditions: tomato late blight, sprayed 17 h after inoculation
[4] = Cmpd No. unmarked, rate not stated in table (b1197 mentions a 200 ppm test suspension)

Molecule | Test A rating (% disease control) ([1]; "*" compound tested at 40 ppm) [%] | Test B rating (% disease control) ([2]; "*" compound tested at 40 ppm) [%] | Test C rating (% disease control) ([3]; "*" compound tested at 40 ppm) [%] | also measured
CS(=O)(=O)CC(=O)N1CCC(c2nc(C3=NOC(c4c(F)cccc4F)C3)cs2)CC1 (stereo not drawn) [compound 62] | 99 | 99 | 95 | –
O=C(NCC1CCCCC1)N1CCC(c2nc(C3=NOC(c4ccccc4)C3)cs2)CC1 (stereo not drawn) [compound 20] | 95 | 100 | 93 | –
CCCCC(O)C(=O)N1CCC(c2nc(C3=NOC(c4c(F)cccc4F)C3)cs2)CC1 (stereo not drawn) [compound 58] | – | 100 | 99 | –
CC(=O)C(=O)N1CCC(c2nc(C3=NOC(c4c(F)cccc4F)C3)cs2)CC1 (stereo not drawn) [compound 65] | 88 | 100 | 99 | –
Cc1cc(C(F)(F)F)nn1C(=O)C(=O)N1CCC(c2nc(C3=NOC(c4ccccc4F)C3)cs2)CC1 (stereo not drawn) [compound 41] | 17 | 26 | 0 | –
O=C(CCOCC(F)(F)F)N1CCC(c2nc(C3=NOC(c4c(F)cccc4F)C3)cs2)CC1 (stereo not drawn) [compound 77] | – | – | – | Test A rating (% disease control) ([1]; "**" compound tested at 10 ppm): 100%; Test B rating (% disease control) ([2]; "**" compound tested at 10 ppm): 100%; Test C rating (% disease control) ([3]; "**" compound tested at 10 ppm): 99%
Cc1ccc(C)c(S(=O)(=O)NC(=O)N2CCC(c3nc(C4=NOC(c5ccccc5)C4)cs3)CC2)c1 (stereo not drawn) [compound 33] | 0 | 0 | 0 | –
CC(C)C(O)C(=O)N1CCC(c2nc(C3=NOC(c4c(F)cccc4F)C3)cs2)CC1 (stereo not drawn) [compound 49] | 97 | 98 | 100 | –
O=C(C(=O)N1CCC(c2nc(C3=NOC(c4ccccc4F)C3)cs2)CC1)c1cccs1 (stereo not drawn) [compound 46] | 0 | 0 | 0 | –
CC(=O)OCC(=O)N1CCC(c2nc(C3=NOC(c4c(F)cccc4F)C3)cs2)CC1 (stereo not drawn) [compound 64] | 80 | 100 | 68 | –
O=C(C(O)C(F)(F)F)N1CCC(c2nc(C3=NOC(c4c(F)cccc4F)C3)cs2)CC1 (stereo not drawn) [compound 53] | – | 100 | 95 | –
CC(C)(C)NC(=O)N1CCC(c2nc(C3=NOC(c4ccccc4)C3)cs2)CC1 (stereo not drawn) [compound 16] | – | – | – | Test A rating (% disease control) [1, 4]: 86%; Test B rating (% disease control) [2, 4]: 100%; Test C rating (% disease control) [3, 4]: 95%
O=C(C(=O)N1CCC(c2nc(C3=NOC(c4ccccc4F)C3)cs2)CC1)c1ccco1 (stereo not drawn) [compound 47] | 85 | 33 | 0 | –
O=C(C(=O)N1CCC(c2nc(C3=NOC(c4ccccc4F)C3)cs2)CC1)c1ccccc1 (stereo not drawn) [compound 45] | 0 | 0 | 0 | –
CONC(=Nc1cc(C)ccc1C)N1CCC(c2nc(C3=NOC(c4c(F)cccc4F)C3)cs2)CC1 (stereo not drawn) [compound 34] | 100 | 100 | 97 | –
Cc1ccc(C)c(N=CN2CCC(c3nc(C4=NOC(c5ccccc5)C4)cs3)CC2)c1 (stereo not drawn) [Example 2, N-[[4-[4-(4,5-dihydro-5-phenyl-3-isoxazolyl)-2-thiazolyl]-1-piperidinyl]methylene]-2,5-dimethylbenzenamine] | – | – | – | Test A rating (% disease control) [1, 4]: 17%; Test B rating (% disease control) [2, 4]: 88%; Test C rating (% disease control) [3, 4]: 0%

Molecule | Test A rating (% disease control) ([1]; "*" compound tested at 40 ppm) [%] | Test B rating (% disease control) ([2]; "*" compound tested at 40 ppm) [%] | Test C rating (% disease control) ([3]; "*" compound tested at 40 ppm) [%] | also measured
5-chloro-1-[4-[4-[4,5-dihydro-5-(2-fluorophenyl)-3-isoxazolyl]-2-thiazolyl]-1-piperidinyl-1-pentanone [Example 7] | – | – | – | Test A rating (% disease control) [1, 4]: 98%; Test B rating (% disease control) [2, 4]: 100%; Test C rating (% disease control) [3, 4]: 71%
CCC(C)C(=O)C(=O)N1CCC(c2nc(C3=NOC(c4c(F)cccc4F)C3)cs2)CC1 (stereo not drawn) [compound 70] | 100 | 100 | 88 | –
O=C(NC1CCCC1)N1CCC(c2nc(C3=NOC(c4ccccc4)C3)cs2)CC1 (stereo not drawn) [compound 19] | 67 | 100 | 63 | –
O=C(COCC(F)(F)F)N1CCC(c2nc(C3=NOC(c4c(F)cccc4F)C3)cs2)CC1 (stereo not drawn) [compound 74] | – | – | – | Test A rating (% disease control) ([1]; "**" compound tested at 10 ppm): 100%; Test B rating (% disease control) ([2]; "**" compound tested at 10 ppm): 10%; Test C rating (% disease control) ([3]; "**" compound tested at 10 ppm): 97%
CSC(=Nc1cc(C)ccc1C)N1CCC(c2nc(C3=NOC(c4ccccc4)C3)cs2)CC1 (stereo not drawn) [Example 1, methyl 4-[4-(4,5-dihydro-5-phenyl-3-isoxazolyl)-2-thiazolyl]-N-(2,5-dimethylphenyl)-1-piperidinecarboximidothioate] | 96 | 97 | 53 | –
Cc1ccc(C)c(C(=O)C(=O)N2CCC(c3nc(C4=NOC(c5c(F)cccc5F)C4)cs3)CC2)c1 (stereo not drawn) [compound 52] | 100 | 100 | 96 | –
Cc1ccc(C)c(C(=O)NC(=O)N2CCC(c3nc(C4=NOC(c5ccccc5F)C4)cs3)CC2)c1 (stereo not drawn) [compound 37] | 0 | 63 | 0 | –
Cc1ccc(C)c(C(=O)NC(=O)N2CCC(c3nc(C4=NOC(c5c(F)cccc5F)C4)cs3)CC2)c1 (stereo not drawn) [compound 36] | 0 | 99 | 99 | –
CC(C)NC(=O)N1CCC(c2nc(C3=NOC(c4ccccc4)C3)cs2)CC1 (stereo not drawn) [compound 15] | – | – | – | Test A rating (% disease control) [1, 4]: 86%; Test B rating (% disease control) [2, 4]: 100%; Test C rating (% disease control) [3, 4]: 91%
CC(C)CC(=O)C(=O)N1CCC(c2nc(C3=NOC(c4c(F)cccc4F)C3)cs2)CC1 (stereo not drawn) [compound 69] | 99 | 84 | 64 | –
CCCC(=O)C(=O)N1CCC(c2nc(C3=NOC(c4c(F)cccc4F)C3)cs2)CC1 (stereo not drawn) [compound 67] | 100 | 100 | 99 | –
C#CCCC(=O)N1CCC(c2nc(C3=NOC(c4ccccc4F)C3)cs2)CC1 (stereo not drawn) [Example 8, 1-[4-[4-[4,5-dihydro-5-(2-fluorophenyl)-3-isoxazolyl]-2-thiazolyl]-1-piperidinyl]-4-pentyn-1-one] | – | – | – | Test A rating (% disease control) [1, 4]: 46%; Test B rating (% disease control) [2, 4]: 40%; Test C rating (% disease control) [3, 4]: 0%
CCC(=O)C(=O)N1CCC(c2nc(C3=NOC(c4c(F)cccc4F)C3)cs2)CC1 (stereo not drawn) [compound 66] | – | 100 | 99 | –
CC(C)C(O)C(=O)N1CCC(c2nc(C3=NOC(c4c(F)cccc4F)C3)cs2)CC1 (mixture of isomers) [compound 54] | – | 100 | 99 | –
CCCCCCC(O)C(=O)N1CCC(c2nc(C3=NOC(c4c(F)cccc4F)C3)cs2)CC1 (stereo not drawn) [compound 61] | – | 100 | 47 | –
CC(C)CC(O)C(=O)N1CCC(c2nc(C3=NOC(c4c(F)cccc4F)C3)cs2)CC1 (stereo not drawn) [compound 57] | – | 100 | 97 | –
